Laboratory results reported in article PMC3673949, “Small Molecule R1498 as a Well-Tolerated and Orally Active Kinase Inhibitor for Hepatocellular Carcinoma and Gastric Cancer Treatment via Targeting Angiogenesis and Mitosis Pathways” (PLoS ONE, 2013).
Like-named read-outs stand apart in the source and are kept apart here.

Assays:
CNE-2 xenograft = details: CNE-2, 100 mg/kg, every 10 days, intraperitoneal injection; for Final TGI%: day of study termination
From the text: The use and care of experimental animal was approved by Institutional Animal Care and Use Committee, Roche R&D Center (China). Tumor cells were inoculated into the right flank of BALB/C nu/nu female nude mice (5∼6 weeks, 16∼18 g, obtained from Sino-British SIPPR/BK Lab. Animal Ltd, Shanghai, China) at optimal density based on our in-house validation study. After the tumor was established and reached 100∼150 mm^3, the mice were randomized into ten mice per group and received treatment according to the schedule. The tumor growth was recorded three times a week with the measurement of length (L) and width (W) by caliper, and calculated as tumor volume (TV, mm^3) = 0.5*L*W*W (mm). […] The tumor regression of individual mouse was defined - the tumor volume at the end was less than the tumor volume when treatment was initiated.

[1] = system: colorectal cancer, breast cancer, melanoma, and leukemia xenografts; details: 150∼225 mg/kg once daily per oral; cited from earlier work
BEL-7404 xenograft = assay: Xenograft efficacy study; assay type: in vivo, BALB/C nu/nu nude mice; details: BEL-7404, 12.5 mg/kg twice a day per oral gavage
BEL-7402 xenograft = assay: Xenograft efficacy study; assay type: in vivo, BALB/C nu/nu nude mice
BGC-823 xenograft = assay: Xenograft efficacy study; assay type: in vivo, BALB/C nu/nu nude mice; details: BGC-823, 25 mg/kg twice a day per oral gavage
HGC-27 xenograft = assay: Xenograft efficacy study; assay type: in vivo, BALB/C nu/nu nude mice; details: HGC-27, 25 mg/kg twice a day per oral gavage
Raf-1 = details: cited from earlier work
SGC-7901 xenograft = assay: Xenograft efficacy study; assay type: in vivo, BALB/C nu/nu nude mice
MGC-803 xenograft = assay: Xenograft efficacy study; assay type: in vivo, BALB/C nu/nu nude mice; details: MGC-803, 25 mg/kg twice a day per oral gavage
[2] = system: advanced and metastatic HCC; details: first line therapy; placebo group 7.9 months; cited from earlier work
HCCLM3 xenograft = assay: Xenograft efficacy study; assay type: in vivo, BALB/C nu/nu nude mice; details: HCCLM3, 12.5 mg/kg twice a day per oral gavage
Ret = details: cited from earlier work
KIT = details: cited from earlier work
[3] = day of study termination (Table S2)

## O=P1(N(CCCl)CCCl)NCCCO1 (centres unmarked) [Cyclophosphamide, cyclophosphamide]
CNE-2 xenograft
  Final TGI%: 58%
CNE-2 xenograft; listed as cyclophosphamide
  Final TGI%: 60%
CNE-2 xenograft; before vs after treatment
  Body weight changes%: -2.1%
CNE-2 xenograft; mice with regression/group
  Tumor Regression: 0/10

## Cc1cc(Nc2cc(N3CCN(C)CC3)nc(/C=C/c3ccccc3)n2)n[nH]1 [ENMD-2076]
[1]
  TGI%: ~90%

## CNC(=O)c1cc(Oc2ccc(NC(=O)Nc3ccc(Cl)c(C(F)(F)F)c3)cc2)ccn1 [Sorafenib, sorafenib, reference compound]
BEL-7404 xenograft; [3]
  Final TGI%: 75%
BEL-7404 xenograft; before vs after treatment
  Body weight changes%: -4.2%
BEL-7404 xenograft; mice with regression/group
  Tumor Regression: 0/10
BEL-7402 xenograft; BEL-7402, 25 mg/kg twice a day per oral gavage, day of study termination
  Final TGI%: 83%
BEL-7402 xenograft; BEL-7402, 25 mg/kg twice a day per oral gavage, before vs after treatment
  Body weight changes%: -16%
BEL-7402 xenograft; BEL-7402, 25 mg/kg twice a day per oral gavage, mice with regression/group
  Tumor Regression: 1/10
BEL-7402 xenograft; BEL-7402 model, 25 mg/kg twice daily per oral, termination day
  percentage of body weight loss: exceeded 15%
BGC-823 xenograft; [3]
  Final TGI%: 82%
BGC-823 xenograft; before vs after treatment
  Body weight changes%: -3.5%
BGC-823 xenograft; mice with regression/group
  Tumor Regression: 0/10
HGC-27 xenograft; day of study termination
  Final TGI%: 83%
HGC-27 xenograft; before vs after treatment
  Body weight changes%: -5.5%
HGC-27 xenograft; mice with regression/group
  Tumor Regression: 0/10
Raf-1
  IC50: […]
SGC-7901 xenograft; SGC-7901, 25 mg/kg twice a day per oral gavage, day of study termination (Table S2)
  Final TGI%: 95%
SGC-7901 xenograft; SGC-7901, 25 mg/kg twice a day per oral gavage, before vs after treatment
  Body weight changes%: -18%
SGC-7901 xenograft; SGC-7901, 25 mg/kg twice a day per oral gavage, mice with regression/group
  Tumor Regression: 2/10
SGC-7901 xenograft; SGC-7901 model, 25 mg/kg twice daily per oral, termination day
  percentage of body weight loss: exceeded 15%
MGC-803 xenograft; day of study termination
  Final TGI%: 92%
MGC-803 xenograft; before vs after treatment
  Body weight changes%: -2.4%
MGC-803 xenograft; mice with regression/group
  Tumor Regression: 2/10
[2]
  median survival time: 10.7 months
HCCLM3 xenograft; day of study termination
  Final TGI%: 71%
HCCLM3 xenograft; before vs after treatment
  Body weight changes%: 4.4%
HCCLM3 xenograft; mice with regression/group
  Tumor Regression: 0/10

## CNC(=O)c1cc(Oc2ccc(NC(=O)Nc3ccc(Cl)c(C(F)(F)F)c3)c(F)c2)ccn1 [regorafenib]
Ret
  IC50: 1.5 nM
KIT
  IC50: 7 nM
